# From patent US20030087906A1, “NITROGEN SUBSTITUTED BIARYL PURINE DERIVATIVES AS POTENT ANTIPROLIFERATIVE AGENTS” (priority 2001, published 2003)
# Several values for one entry are separate records, joined by “and”; a condition that tells them apart may be missing. Identical values can stand only once. Entries after “also recorded” stand apart in the source; their conditions may differ. Like-named read-outs stand apart in the source and are kept apart here.
# Tests used:
# CyclinB/cdk1 = target: T1, CyclinB/cdk1 (Homo sapiens, UniProt P06493); assay: CyclinB/cdk1 protein kinase assay (histone H1 phosphorylation); assay type: biochemical; conditions: complex immunopurified from HeLa cells; 15 μM ATP; replicate experiments
# T1 construct: Monoclonal antibody against cyclinB (GNS1) is added to the supernatant; endogenous in cells
# Experimental: HeLa cells are blocked at the G1/S border by culturing in the presence of 2 mM thymidine for 20 h. The cells are then rinsed 3×in phosphate buffered saline and resuspended in regular medium. After 4 h of culture, the mitotic blocker, nocodazole is added to a final concentration of 75 ng/ml. […] The lysate is then clarified by centrifugation at 10,000×g for 10 min. The supernatant is collected and diluted 1:5 with Lysis Buffer. Monoclonal antibody against cyclinB (GNS1) is added to the supernatant to a final concentration of 5 μg/ml and shaken at 4° C. for 2 h. The immune complexes are then collected by the addition of 200 μl of protein agarose beads for 1 h. The beads are washed 4×in lysis buffer and 1×in kinase assay buffer.
# Duplicate assays were performed at each concentration.
# HeLa S-3 cells = assay: Inhibition of cell growth of HeLa cells (SRB); assay type: cell-based, human; conditions: 2 days of treatment, replicate experiments
# Experimental: Growth inhibition (GI50) values were measured with HeLa S-3 cells selected for growth on plastic. […] One day later, a control plate was fixed by addition of TCA to 5%. After five rinses with tap water the plate was air dried and stored at 4° C. Test compounds were added to the remaining plates at 10-fold dilutions between 0.01 and 100 μM. Two days later all plates were fixed as described above. Cells were then stained by the addition of 100 μl per well of 0.4% sulforhodamine B (SRB) in 1% acetic acid for 30 min at 4° C. Wells were then quickly rinsed 5×with acetic acid (1%) and allowed to air dry. The SRB was then solubilized by the addition of 100 μl per well of unbuffered 10 mM Tris base. Dye was quantified by measuring absorbance at 490 nm on a Molecular Devices kinetic microplate reader. Growth at each inhibitor concentration relative to the untreated control was calculated according to the following equation: percent growth=100×(T−To)/(C−To), where T was the average optical density (OD) of the test wells after 2 days of treatment, To was the average OD of the wells in the control plate on day 0 and C was the average OD of untreated wells. Plots of percent growth versus inhibitor concentration were used to determine the GI50.
# [1] = tested on: Tumor Cells in Hollow Fibers; assay: NCI Hollow Fiber Assay (in vivo evaluation); conditions: for IP Score: IP fibers; for SC score: SC fibers
# CyclinA/cdk2 = CyclinA/cdk2 (Homo sapiens, UniProt P24941); assay: CyclinA/cdk2 protein kinase assay (histone H1 phosphorylation); conditions: IC50 CyclinA/cdk2, complex immunopurified from HeLa cells; 15 μM ATP; replicate experiments
# CyclinE/cdk2 = CyclinE/cdk2 (Homo sapiens, UniProt P24941); assay: CyclinE/cdk2 protein kinase assay (histone H1 phosphorylation); conditions: 15 μM ATP, replicate experiments
# [2] = IC50 CyclinE/cdk2, complex immunopurified from HeLa cells
# T1 sequence (P06493 whole entry): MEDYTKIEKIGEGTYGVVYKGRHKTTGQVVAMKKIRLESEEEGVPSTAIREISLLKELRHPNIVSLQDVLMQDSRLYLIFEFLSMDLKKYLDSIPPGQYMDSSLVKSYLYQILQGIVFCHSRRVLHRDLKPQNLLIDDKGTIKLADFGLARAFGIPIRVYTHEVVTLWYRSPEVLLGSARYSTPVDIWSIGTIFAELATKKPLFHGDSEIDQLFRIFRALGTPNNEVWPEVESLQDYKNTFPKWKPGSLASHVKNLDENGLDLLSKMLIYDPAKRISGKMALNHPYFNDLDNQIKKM
# T1 sequence (P14635 whole entry partner): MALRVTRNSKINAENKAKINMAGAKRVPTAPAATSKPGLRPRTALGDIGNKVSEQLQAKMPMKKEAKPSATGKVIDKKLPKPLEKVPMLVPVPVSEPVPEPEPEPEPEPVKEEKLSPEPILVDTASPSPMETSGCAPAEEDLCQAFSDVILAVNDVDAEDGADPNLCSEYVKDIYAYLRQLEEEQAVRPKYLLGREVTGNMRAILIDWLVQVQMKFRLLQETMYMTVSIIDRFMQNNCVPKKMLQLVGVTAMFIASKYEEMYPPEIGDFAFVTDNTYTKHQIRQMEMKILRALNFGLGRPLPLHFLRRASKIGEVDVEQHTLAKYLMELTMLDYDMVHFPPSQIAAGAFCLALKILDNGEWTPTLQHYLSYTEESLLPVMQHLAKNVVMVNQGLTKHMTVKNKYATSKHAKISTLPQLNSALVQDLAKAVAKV
Compound,IC50 (CyclinB/cdk1),"GI50 (HeLa S-3 cells; Homo sapiens, HeLa S3, 48 h)",melting point,IC50 (CyclinA/cdk2),IC50 (CyclinE/cdk2; [2]),other results
CC(C)n1cnc2c(NCc3ccc(-c4cccc(F)c4)cc3)nc(N[C@H]3CC[C@H](N)CC3)nc21 [Compound 95],4 µM,–,–,–,–,–
CC[C@H](CO)Nc1nc(NCc2ccc(-c3cccc(NC(C)=O)c3)cc2)c2ncn(C(C)C)c2n1 [Compound 5],7 µM,5000 nM,–,–,–,–
Cc1cc(C)cc(-c2ccc(CNc3nc(N[C@H]4CC[C@H](N)CC4)nc4c3ncn4C(C)C)cc2)c1 [Compound 149],–,–,86 to 90 °C,–,–,–
CC(C)n1cnc2c(NCc3ccc(-c4ccc(Cl)cc4)cc3)nc(N[C@H]3CC[C@H](N)CC3)nc21 [Compound 98],> 10 µM,–,–,–,–,–
CC(C)n1cnc2c(NCc3ccc(-c4cccnc4)cc3)nc(N[C@H]3CC[C@H](N)CC3)nc21 [Compound 103],1 µM,–,–,600 nM and 700 nM,200 nM,"Cell Types Killed [1]: OVCAR 3,; also recorded: OVCAR 5, H522,; also recorded: MDA-MB-435,; also recorded: SF295; IP Score [1]: 38; SC score [1]: 6"
CC(=O)N[C@H]1CC[C@H](Nc2nc(NCc3ccc(-c4cccs4)nc3)c3ncn(C(C)C)c3n2)CC1 [Compound 200],–,300 nM,206 to 208 °C,–,–,GI50 (HeLa S-3 cells): 200 nM
Cc1ccc(-c2ccc(CNc3nc(N[C@H]4CC[C@H](N)CC4)nc4c3ncn4C(C)C)cc2)cc1 [Compound 13],4 µM,–,–,4000 nM and 1000 nM and 800 nM,2000 nM and 300 nM and 900 nM,–
COc1ccc(OC)c(-c2ccc(CNc3nc(N[C@H]4CC[C@H](NC(C)=O)CC4)nc4c3ncn4C(C)C)cc2)c1 [Compound 154],–,600 nM,185 to 192 °C,–,–,GI50 (HeLa S-3 cells): 900 nM
CC(=O)N[C@H]1CC[C@H](Nc2nc(NCc3ccc(-c4ccc(C(=O)O)cc4)cc3)c3ncn(C(C)C)c3n2)CC1 [Compound 116],–,> 10000 nM,344 to 347 °C,> 10000 nM,> 10000 nM,–
CC(=O)N[C@H]1CC[C@H](Nc2nc(NCc3ccc(-c4cc(C)cc(C)c4)cc3)c3ncn(C(C)C)c3n2)CC1 [Compound 150],–,300 nM,207 to 210 °C,–,–,–
CC(C)n1cnc2c(NCc3ccc(-c4ccccc4)cc3)nc(N[C@H]3CC[C@H](N)CC3)nc21 [Compound 75],6 µM,–,–,3000 nM,3000 nM,–
COC(=O)c1ccc(-c2ccc(CNc3nc(N[C@H]4CC[C@H](NC(C)=O)CC4)nc4c3ncn4C(C)C)cc2)cc1 [Compound 117],–,–,247 to 250 °C,> 10000 nM,3000 nM,–
CC(C)n1cnc2c(NCc3ccc(-c4ccc(F)cc4)cc3)nc(N[C@H]3CC[C@H](N)CC3)nc21 [Compound 101],4 µM,–,–,–,–,–
CC(C)n1cnc2c(NCc3ccc(-c4ccsc4)nc3)nc(N[C@H]3CC[C@H](N)CC3)nc21 [Compound 123],–,–,78 to 81 °C,200 nM,40 nM,GI50 (HeLa S-3 cells): < 1 nM and 0.1 nM
COc1cccc(-c2ccc(CNc3nc(N[C@H]4CC[C@H](NC(C)=O)CC4)nc4c3ncn4C(C)C)cn2)c1 [Compound 194],–,60 nM,161 to 163 °C,–,–,GI50 (HeLa S-3 cells): 40 nM
CC(=O)N[C@H]1CC[C@H](Nc2nc(NCc3ccc(-c4cccc(CN)c4)cc3)c3ncn(C(C)C)c3n2)CC1 [Compound 223],–,–,200 to 206 °C,–,–,–
CC(=O)N[C@H]1CC[C@H](Nc2nc(NCc3ccc(-c4ccccn4)nc3)c3ncn(C(C)C)c3n2)CC1 [Compound 94],0.4 µM,100 nM,–,600 nM and 200 nM,300 nM,"Cell Types Killed [1]: COLO205,; also recorded: OVCAR-3, H522; IP Score [1]: 22; SC score [1]: 2"
N[C@H]1CC[C@H](Nc2nc(NCc3ccc(-c4ccccc4)cc3)c3ncn(C4CCCC4)c3n2)CC1 [Compound 144],–,–,144 to 146 °C,–,–,–
CC(C)n1cnc2c(NCc3ccc(-c4ccccc4)cc3)nc(N[C@H]3CCCC[C@H]3NC(=O)Nc3ccccc3)nc21 [Compound 80],> 10 µM,–,–,> 10000 nM,> 10000 nM and 4000 nM and 2000 nM,–
CC(C)n1cnc2c(NCc3ccc(-c4ccccn4)nc3)nc(N[C@H]3CC[C@H](N)CC3)nc21 [Compound 93],0.9 µM,–,–,200 nM and 300 nM,90 nM and 100 nM,GI50 (HeLa S-3 cells): 300 nM; Cell Types Killed [1]: OVCAR-3; IP Score [1]: 22; SC score [1]: 8

Compound,IC50 (CyclinB/cdk1),"GI50 (HeLa S-3 cells; Homo sapiens, HeLa S3, 48 h)",melting point,IC50 (CyclinA/cdk2),IC50 (CyclinE/cdk2; [2]),other results
CC(=O)N[C@H]1CC[C@H](Nc2nc(NCc3ccc(-c4ccc(F)c(Cl)c4)cc3)c3ncn(C(C)C)c3n2)CC1 [Compound 100],> 10 µM,600 nM,–,> 10000 nM,4000 nM,–
CC(C)n1cnc2c(NCc3ccc(-c4ccccc4)nc3)nc(N[C@H]3CC[C@H](N)CC3)nc21 [Compound 86],2 µM,–,–,900 nM and 700 nM and 400 nM and 600 nM,–,"Cell Types Killed [1]: OVCAR 3,; also recorded: OVCAR 5, H522; IP Score [1]: 38; SC score [1]: 0"
CCCn1cnc2c(NCc3ccc(-c4ccccc4)cc3)nc(N[C@H]3CC[C@H](N)CC3)nc21 [Compound 142],–,–,133 to 138 °C,–,–,–
CC(=O)N[C@H]1CC[C@H](Nc2nc(NCc3cccc(-c4ccccc4)c3)c3ncn(C(C)C)c3n2)CC1 [Compound 135],–,–,183 to 185 °C,–,–,–
"CCn1cnc2c(Nc3cccc(Cl)c3)nc(N[C@H]3CCCC[C@H]3N)nc21 [Compound 125, reference compound]",0.6 µM,3000 nM,–,1000 nM,100 nM,–
"CC(C)n1cnc2c(NCc3cccnc3)nc(N[C@@H]3CCCC[C@@H]3N)nc21 [Compound 126, reference compound]",2 µM and 0.2 µM,–,–,600 nM and 800 nM,60 nM,"IC50 (CyclinE/cdk2; read-out: IC50 CyclinE/cdk2, complex immunopurified from HeLa cells): 60 nM"
CC(C)n1cnc2c(NCc3ccc(-c4ccccc4)cc3)nc(N[C@@H]3CCCC[C@@H]3N)nc21 (racemic) [Compound 74],6 µM,–,–,5000 nM and 2000 nM and 1000 nM,2000 nM and 3000 nM,–
CC(C)n1cnc2c(NCc3ccc(-c4ccccc4)cc3)nc(N[C@@H]3CCCC[C@H]3N)nc21 (racemic) [Compound 58],12 µM,–,–,11000 nM and 4000 nM,2000 nM and 4000 nM,–
CCCN[C@H]1CC[C@H](Nc2nc(NCc3ccc(-c4ccc(C)s4)cc3)c3ncn(C(C)C)c3n2)CC1 [Compound 159],–,–,150 to 155 °C,–,–,–
CC(=O)N[C@H]1CC[C@H](Nc2nc(NCc3ccc(-c4cccnc4)cc3)c3ncn(C(C)C)c3n2)CC1 [Compound 104],2 µM,200 nM,–,7000 nM and 8000 nM,1000 nM,–
CC(=O)N[C@H]1CC[C@H](Nc2nc(NCc3ccc(-c4ccc(Cl)cc4)cc3)c3ncn(C(C)C)c3n2)CC1 [Compound 99],> 10 µM,5000 nM,–,> 10000 nM,9000 nM,–
CC(=O)NCCCNc1nc(NCc2ccc(-c3ccccc3)cc2)c2ncn(C(C)C)c2n1 [Compound 212],–,5000 nM,106 to 107 °C,–,–,–
CC(C)n1cnc2c(NCc3ccc(-c4ccccc4)cc3)nc(NC3(CO)CCCC3)nc21 [Compound 53],> 10 µM,–,–,> 10000 nM,15000 nM and 4000 nM,–
CC(C)n1cnc2c(NCc3ccc(-c4ccc(F)c(Cl)c4)cc3)nc(N[C@H]3CC[C@H](N)CC3)nc21 [Compound 14],7 µM,–,–,–,–,GI50 (HeLa S-3 cells): 30 nM
CC(=O)N[C@H]1CCCC[C@@H]1Nc1nc(NCc2ccc(-c3ccccc3)cc2)c2ncn(C(C)C)c2n1 [Compound 60],> 10 µM,7000 nM,–,–,12000 nM and > 10000 nM,–
CCn1cnc2c(NCc3ccc(-c4ccccc4)cc3)nc(N[C@H]3CC[C@H](N)CC3)nc21 [Compound 137],–,–,175 to 182 °C,–,–,–
CC(C)n1cnc2c(NCc3ccc(-c4cccc(C(=O)O)c4)cc3)nc(N[C@H]3CC[C@H](N)CC3)nc21 [Compound 118],–,–,205 to 208 °C,6000 nM,1000 nM,–
C=CCn1cnc2c(NCc3ccc(-c4ccccc4)cc3)nc(N[C@H]3CC[C@H](N)CC3)nc21 [Compound 146],–,–,111 to 114 °C,–,–,–
CC(=O)N[C@H]1CC[C@H](Nc2nc(NCc3ccc(-c4cccc(F)c4)cc3)c3ncn(C(C)C)c3n2)CC1 [Compound 96],6 µM,–,–,8000 nM,4000 nM,–
